From patent publication US20260217767A1, “NOVEL A4B7 THIOETHER PEPTIDE DIMER ANTAGONISTS” (Protagonist Therapeutics, Inc., priority 2014, published 2026)
Where a SMILES comes first, the peptide text is derived from it.

target: T1, RPMI 8866 cells (Homo sapiens, UniProt P13612+P26010); experiment: α4β7-MAdCAM Cell Adhesion Assay; assay type: cell-based; settings: thioether monomer peptides, Table 6; read-out: Cell-Adhesion A4B7
T1 sequence (P13612 34-1032): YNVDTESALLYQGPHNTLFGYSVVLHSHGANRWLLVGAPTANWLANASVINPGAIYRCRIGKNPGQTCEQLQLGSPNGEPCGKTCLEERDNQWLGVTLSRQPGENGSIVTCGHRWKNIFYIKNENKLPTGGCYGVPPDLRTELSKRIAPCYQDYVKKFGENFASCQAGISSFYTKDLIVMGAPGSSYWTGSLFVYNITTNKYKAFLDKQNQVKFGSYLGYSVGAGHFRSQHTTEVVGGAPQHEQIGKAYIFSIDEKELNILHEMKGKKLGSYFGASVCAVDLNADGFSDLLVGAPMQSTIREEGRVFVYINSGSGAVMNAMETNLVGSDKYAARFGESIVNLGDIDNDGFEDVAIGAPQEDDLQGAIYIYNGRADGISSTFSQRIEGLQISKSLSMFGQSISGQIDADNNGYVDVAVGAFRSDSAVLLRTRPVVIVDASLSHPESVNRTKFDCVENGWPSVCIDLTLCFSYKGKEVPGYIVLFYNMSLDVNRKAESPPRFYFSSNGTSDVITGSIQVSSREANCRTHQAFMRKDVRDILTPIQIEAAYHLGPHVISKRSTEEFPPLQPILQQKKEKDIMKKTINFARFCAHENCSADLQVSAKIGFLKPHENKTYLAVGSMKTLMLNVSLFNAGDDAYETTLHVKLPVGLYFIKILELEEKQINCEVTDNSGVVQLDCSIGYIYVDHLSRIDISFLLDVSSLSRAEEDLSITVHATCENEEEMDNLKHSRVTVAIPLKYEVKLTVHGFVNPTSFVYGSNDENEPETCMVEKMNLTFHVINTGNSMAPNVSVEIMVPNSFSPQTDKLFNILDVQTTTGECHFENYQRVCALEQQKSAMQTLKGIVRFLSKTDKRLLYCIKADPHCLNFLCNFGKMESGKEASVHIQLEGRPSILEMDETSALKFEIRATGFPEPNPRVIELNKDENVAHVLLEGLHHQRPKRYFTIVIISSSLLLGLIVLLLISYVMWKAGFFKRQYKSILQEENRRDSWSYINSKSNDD
T1 sequence (P26010 20-798): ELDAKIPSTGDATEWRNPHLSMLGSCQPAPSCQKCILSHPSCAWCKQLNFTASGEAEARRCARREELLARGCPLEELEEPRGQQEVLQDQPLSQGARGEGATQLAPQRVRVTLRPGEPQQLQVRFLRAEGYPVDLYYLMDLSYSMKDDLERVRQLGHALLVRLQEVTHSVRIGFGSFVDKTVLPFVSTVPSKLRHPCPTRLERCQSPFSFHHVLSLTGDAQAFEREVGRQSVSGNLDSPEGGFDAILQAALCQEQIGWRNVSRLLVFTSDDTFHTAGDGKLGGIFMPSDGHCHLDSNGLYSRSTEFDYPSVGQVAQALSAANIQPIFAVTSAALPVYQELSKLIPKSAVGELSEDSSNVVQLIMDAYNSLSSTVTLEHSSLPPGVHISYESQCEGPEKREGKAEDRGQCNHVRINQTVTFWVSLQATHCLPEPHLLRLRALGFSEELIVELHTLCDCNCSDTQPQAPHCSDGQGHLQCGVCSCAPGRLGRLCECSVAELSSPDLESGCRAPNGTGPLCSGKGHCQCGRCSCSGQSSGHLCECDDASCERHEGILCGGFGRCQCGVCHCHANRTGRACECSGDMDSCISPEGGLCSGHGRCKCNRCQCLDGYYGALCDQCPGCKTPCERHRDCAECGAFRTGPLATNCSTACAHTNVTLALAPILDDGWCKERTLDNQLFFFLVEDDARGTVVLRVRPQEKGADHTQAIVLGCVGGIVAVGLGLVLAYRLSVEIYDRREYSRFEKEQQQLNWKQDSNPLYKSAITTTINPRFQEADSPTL
In short: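 Peptide inhibition of adhesion measured with MAdCAM-1/Fc chimera immobilised at 200 ng/well and MnCl2-activated (1 mM) RPMI 8866 cells, 30-45 min at 37° C. Adherent cells remaining after three washes detected by MTT reduction at 570 nm, corrected for no-cell wells, giving dose response.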

First: CC(C)C[C@@H]1NC(=O)[C@H]([C@@H](C)O)NC(=O)[C@H](CC(=O)O)NC(=O)[C@H](CO)NC(=O)[C@H](CCCNC(=N)N)N(C)C(=O)c2ccccc2CSC[C@@H](C(=O)N[C@@H](Cc2c[nH]c3ccccc23)C(=O)N[C@@H](CCC(=O)O)C(=O)N[C@H](CCCCN)C(N)=O)NC1=O [compound 55] (HELM PEPTIDE1{[meR].S.D.T.L.C.W.E.[dK].[am]}|CHEM1{[O=C(c1ccccc1C[*:2])[*:1]]}$PEPTIDE1,CHEM1,1:R1-1:R1|PEPTIDE1,CHEM1,6:R3-1:R2$$$V2.0)
Second: CC(=O)NCCCC[C@@H](NC(=O)[C@H](CCC(=O)O)NC(=O)[C@H](Cc1c[nH]c2ccccc12)NC(=O)[C@H]1NC(=O)[C@H](CC(C)C)NC(=O)[C@H]([C@@H](C)O)NC(=O)[C@H](CC(=O)O)NC(=O)[C@H](CO)NC(=O)[C@H](CCCNC(=N)N)N(C)C(=O)c2ccccc2CSC1(C)C)C(N)=O [compound 80] (HELM PEPTIDE1{[meR].S.D.T.L.[Pen].W.E.[dK].[am]}|PEPTIDE2{[ac]}|CHEM1{[O=C(c1ccccc1C[*:2])[*:1]]}$PEPTIDE1,PEPTIDE2,9:R3-1:R2|PEPTIDE1,CHEM1,1:R1-1:R1|PEPTIDE1,CHEM1,6:R3-1:R2$$$V2.0)
The IC50 of the first is higher: 100 to 1000 nM for the first, 25 to 100 nM for the second. The second is the more potent here.

`CC(C)C[C@@H]1NC(=O)[C@H]([C@@H](C)O)NC(=O)[C@H](CC(=O)O)NC(=O)[C@H](CO)NC(=O)[C@H](CCCNC(=N)N)N(C)C(=O)c2ccccc2CSC(C)(C)[C@@H](C(=O)N[C@@H](Cc2cccc3ccccc23)C(=O)N[C@H](CCC(=O)O)C(=O)N(C)[C@@H](CCCCN)C(N)=O)NC1=O` [compound 69] (HELM PEPTIDE1{[meR].S.D.T.L.[Pen].[O=C([C@H](Cc1cccc2ccccc12)N[*:1])[*:2]].[dE].[meK].[am]}|CHEM1{[O=C(c1ccccc1C[*:2])[*:1]]}$PEPTIDE1,CHEM1,1:R1-1:R1|PEPTIDE1,CHEM1,6:R3-1:R2$$$V2.0) and `CC(=O)NCCCC[C@@H](NC(=O)[C@H](CCC(=O)O)NC(=O)[C@H](Cc1cccc2ccccc12)NC(=O)[C@H]1NC(=O)[C@H](CC(C)C)NC(=O)[C@H]([C@@H](C)O)NC(=O)[C@H](CC(=O)O)NC(=O)[C@H](CO)NC(=O)[C@H](CCCNC(=N)N)N(C)C(=O)c2ccccc2CSC1(C)C)C(N)=O` [compound 89] (HELM PEPTIDE1{[meR].S.D.T.L.[Pen].[O=C([C@H](Cc1cccc2ccccc12)N[*:1])[*:2]].E.[dK].[am]}|PEPTIDE2{[ac]}|CHEM1{[O=C(c1ccccc1C[*:2])[*:1]]}$PEPTIDE1,PEPTIDE2,9:R3-1:R2|PEPTIDE1,CHEM1,1:R1-1:R1|PEPTIDE1,CHEM1,6:R3-1:R2$$$V2.0) fall in the same range of IC50: 100 to 1000 nM for the first, 100 to 1000 nM for the second.

With `CC(=O)NCCCC[C@@H](NC(=O)[C@@H](CCC(=O)O)NC(=O)[C@H](Cc1c[nH]c2ccccc12)NC(=O)[C@H]1NC(=O)[C@H](CC(C)C)NC(=O)[C@H]([C@@H](C)O)NC(=O)[C@H](CC(=O)O)NC(=O)[C@H](CO)NC(=O)[C@H](CCCNC(=N)N)N(C)C(=O)c2ccccc2CSC1(C)C)C(N)=O` [compound 81] (HELM PEPTIDE1{[meR].S.D.T.L.[Pen].W.[dE].[dK].[am]}|PEPTIDE2{[ac]}|CHEM1{[O=C(c1ccccc1C[*:2])[*:1]]}$PEPTIDE1,PEPTIDE2,9:R3-1:R2|PEPTIDE1,CHEM1,1:R1-1:R1|PEPTIDE1,CHEM1,6:R3-1:R2$$$V2.0) the IC50 was 25 to 100 nM.

same assay, conditions: thioether peptide dimers, Table 7; read-out: Cell-Adhesion A4B7

Work on `CC(C)C[C@@H]1NC(=O)[C@H]([C@@H](C)O)NC(=O)[C@H](CC(=O)O)NC(=O)[C@H](CO)NC(=O)[C@H](CCCNC(=N)N)N(C)C(=O)C(C)SC[C@@H](C(=O)N[C@@H](Cc2c[nH]c3ccccc23)C(=O)N[C@H](CCCCN)C(N)=O)NC1=O` (single isomer, unassigned) [compound 144] yielded an IC50 greater than 1000 nM.
